According to patent US9102629B2, “Polymorphic forms of 4-phenylamine quinazoline derivative, the preparation method and uses thereof” (priority 2008, dated 2015):

Assays:
[1] = tested on: human ovarian cancer SKOV-3; assay: Tumor-inhibitory effect on SKOV-3 transplanted to nude mouse; format: in vivo, BALB/cA nude mouse; conditions: for relative tumor proliferation rate T/C: SKOV-3, 3 weeks, p-Toluenesulfonate; for relative tumor proliferation rate T/C / tumor inhibitory effects: 100 mg/kg ig twice a day; for tumor inhibitory effects: summary in words for SKOV-3, Calu-3 and A549 models
Procedure: A tumor SKOV-3 in vigorous growth period was selected and cut into several uniform bits of a size of about 1.5 mm^3, which was inoculated subcutaneously to the right armpit of the BALB/cA nude mice using trocar under sterile conditions. The diameters of the transplanted tumors of nude mice were measured with a vernier caliper. The animals were grouped randomly when the tumors grew to a size of 80-100 mm^3. The tested animal group were intragastrically administrated through mouth as mentioned above once a day for 3 weeks continuously. The positive control drug MMC (Mitomycin) was intravenously administered once on the first day with a dose of 5 mg/kg. The negative control group were administered with 0.5% CMC-Na (Carboxymethyl Cellulose Sodium) with a dose of 0.2 mL/per mouse. The long axis (a) and the short axis (b) of the tumors were measured twice every week and the nude mice were weighed at the same time. According to the formula V=ab^2/2, the tumor volume (mm^3) could be calculated, based on which the relative tumor volume (RTV) was calculated (Calculation Formula: RTV=Vt/V0, wherein V0 represents the tumor volume measured at the grouping time of administration, and Vt represents the tumor volume measured each time). The relative tumor proliferation rate T/C (%) was chosen as the index to evaluate the anti-tumor activity, which can be calculated according to the following formula: T/C (%)=(TRTV/CRTV)×100
TRTV: RTV of the treated group; CRTV: RTV of the negative control group
V0 represents the tumor volume before the administration, and V21 represents the tumor volume after 3 weeks of continuous administration.
(§1) According to the experimental method mentioned above, the tumor-bearing nude mice, into which the human ovarian cancer SKOV-3, the human lung cancer Calu-3, and the human lung cancer A549 were transplanted respectively, were intragastrically administrated with Form B (100 mg/kg) of the present invention through mouth twice a day for 3 weeks continuously.
as §1, with “SKQV-3,” for “SKOV-3,”, “C” for “B”

[2] = Thermal stability test (storage at 60° C.); format: physicochemical; conditions: p-Toluenesulfonate; for thermal stability: 60° C., one month, in words; for Purity (%): stored at 60° C.
Source text: The purity of Form A was detected at 0, 10 and 30 days, which was based to deduce the thermal stability of Form A. The thermal stability of Form B and Form C were also deduced by this method.

human lung cancer A549 = assay: Tumor-inhibitory effect on A549 transplanted to nude mouse; format: in vivo, nude mice; conditions: 100 mg/kg ig twice a day, 3 weeks, p-Toluenesulfonate
Procedure: (§2) The diameters of the transplanted tumors of nude mice were measured with a vernier caliper. The animals were grouped randomly when the tumors grew to a size of 80-100 mm^3. […] The positive control drug MMC (Mitomycin) was intravenously administered once on the first day with a dose of 5 mg/kg. The negative control group were administered with 0.5% CMC-Na (Carboxymethyl Cellulose Sodium) with a dose of 0.2 mL/per mouse. The long axis (a) and the short axis (b) of the tumors were measured twice every week and the nude mice were weighed at the same time. […] RTV=Vt/V0, wherein V0 represents the tumor volume measured at the grouping time of administration, and Vt represents the tumor volume measured each time). The relative tumor proliferation rate T/C (%) was chosen as the index to evaluate the anti-tumor activity, which can be calculated according to the following formula: T/C (%)=(TRTV/CRTV)×100 TRTV: RTV of the treated group; CRTV: RTV of the negative control group The standard for evaluating the effectiveness: […]

[3] = Hygroscopicity test (high moisture environment of 92.5%); format: physicochemical; conditions: p-Toluenesulfonate; for stability under the environment of high moisture: 92.5% moisture, one month, in words; for Purity (%): high moisture environment of 92.5%
Source text: The purity of Form A was detected at 0, 10 and 30 days, which was based to deduce the hygroscopicity of Form A. The hygroscopicities of Form B and Form C were also deduced by this method.

human lung cancer Calu-3 = assay: Tumor-inhibitory effect on Calu-3 transplanted to nude mouse; format: in vivo, nude mice; conditions: 100 mg/kg ig twice a day, 3 weeks, p-Toluenesulfonate
Procedure: as §2

[4] = Light stability test (illumination 4500 lx±500 lx); format: physicochemical; conditions: p-Toluenesulfonate; for light stability: 4500 lx±500 lx, one month, in words; for Purity (%): illumination 4500 lx±500 lx
Source text: The purity of Form A was detected at 0, 10 and 30 days, which was based to deduce to the light stability of Form A. The light stability of Form B and Form C were also deduced by this method.

[5] = Toxicity test of long-term administration; format: in vivo; conditions: SD rats, ig, 20, 50, 100, 500 or 800 mg/(kg·day), four weeks
Procedure: 80 healthy SD rats, male and weighed 200˜250 g, were grouped into 16 groups randomly, and were each intragastrically administered with Form A, B or C of the p-toluenesulfonate of the compound of formula (I) or a blank solvent (Five test groups with the dose of 20, 50, 100, 500 or 800 mg/(kg·day) and a solvent control group were set).

[6] = tested on: human epidermatoid squamous cancer A431; assay: Tumor-inhibitory effect on A431 transplanted to nude mouse; format: in vivo, BALB/cA nude mouse; conditions: for Weight of animals (g) (without tumor) / Tumor inhibition rate % / Weight of tumors (g) x ± SD: 13 days; for Tumor inhibition rate %: by tumor weight; for Weight of tumors (g) x ± SD: killed 23 days after inoculation
Procedure: A well-developed solid tumor A431 was selected and cut into several uniform bits of a size of 2-3 mm under sterile conditions, with one bit being inoculated subcutaneously to the right armpit of each of the BALB/cA nude mice using trocar. 7 days after inoculation, the mice were grouped randomly and were intragastrically administrated through mouth for 13 days continuously. The long axis (a) and the short axis (b) of the tumors were measured with a vernier caliper every 4 days. According to the formula V=ab^2/2, the tumor volume (mm^3) could be calculated. The tested animals were neck-off killed 23 days after the inoculation, and anatomized to obtain the tumors. The tumors were weighed, and the tumor inhibition rate was calculated.

[7] = Drug absorption in SD rat, intragastric administration; format: in vivo, SD rat (Sprague Dawley rat); conditions: ig, 30 mg/kg, plasma, p-Toluenesulfonate
Procedure: Intragastric administration (ig): 16 healthy SD rats, male, weighed 200˜250 g, and grouped into 4 groups randomly, were each administered intragastrically with a drug:the compound (21.68 mg/kg) prepared according to Example 1, Form A, B or C of p-toluenesulfonate of the compound (30 mg/kg). The blood samples were collected at 0.5, 1.0, 1.5, 2.0, 3.0, 5.0, 7.0, 9.0, 12 and 24 hours after administration, which were then isolated to prepare the plasma. The concentration of the drug in the plasma was determined by means of liquid chromatography/mass spectrometry, and the concentration-time curve was obtained.

Erb-B2 kinase = Erb-B2 kinase (Homo sapiens, UniProt P04626); conditions: in vitro; from WO 2007/082434; in words; cited from earlier work
[8] = tested on: human breast cancer cell BT-474; conditions: from WO 2007/082434; in words; cited from earlier work
[9] = tested on: human epidermoid squamous cancer cell A431; conditions: from WO 2007/082434; in words; cited from earlier work
[10] = tested on: human epidermoid squamous cancer cell A431; conditions: from WO 2007/082434; in words; cited from earlier work; remark: listed apart in the source

Chain of Erb-B2 kinase (P04626 23-1255): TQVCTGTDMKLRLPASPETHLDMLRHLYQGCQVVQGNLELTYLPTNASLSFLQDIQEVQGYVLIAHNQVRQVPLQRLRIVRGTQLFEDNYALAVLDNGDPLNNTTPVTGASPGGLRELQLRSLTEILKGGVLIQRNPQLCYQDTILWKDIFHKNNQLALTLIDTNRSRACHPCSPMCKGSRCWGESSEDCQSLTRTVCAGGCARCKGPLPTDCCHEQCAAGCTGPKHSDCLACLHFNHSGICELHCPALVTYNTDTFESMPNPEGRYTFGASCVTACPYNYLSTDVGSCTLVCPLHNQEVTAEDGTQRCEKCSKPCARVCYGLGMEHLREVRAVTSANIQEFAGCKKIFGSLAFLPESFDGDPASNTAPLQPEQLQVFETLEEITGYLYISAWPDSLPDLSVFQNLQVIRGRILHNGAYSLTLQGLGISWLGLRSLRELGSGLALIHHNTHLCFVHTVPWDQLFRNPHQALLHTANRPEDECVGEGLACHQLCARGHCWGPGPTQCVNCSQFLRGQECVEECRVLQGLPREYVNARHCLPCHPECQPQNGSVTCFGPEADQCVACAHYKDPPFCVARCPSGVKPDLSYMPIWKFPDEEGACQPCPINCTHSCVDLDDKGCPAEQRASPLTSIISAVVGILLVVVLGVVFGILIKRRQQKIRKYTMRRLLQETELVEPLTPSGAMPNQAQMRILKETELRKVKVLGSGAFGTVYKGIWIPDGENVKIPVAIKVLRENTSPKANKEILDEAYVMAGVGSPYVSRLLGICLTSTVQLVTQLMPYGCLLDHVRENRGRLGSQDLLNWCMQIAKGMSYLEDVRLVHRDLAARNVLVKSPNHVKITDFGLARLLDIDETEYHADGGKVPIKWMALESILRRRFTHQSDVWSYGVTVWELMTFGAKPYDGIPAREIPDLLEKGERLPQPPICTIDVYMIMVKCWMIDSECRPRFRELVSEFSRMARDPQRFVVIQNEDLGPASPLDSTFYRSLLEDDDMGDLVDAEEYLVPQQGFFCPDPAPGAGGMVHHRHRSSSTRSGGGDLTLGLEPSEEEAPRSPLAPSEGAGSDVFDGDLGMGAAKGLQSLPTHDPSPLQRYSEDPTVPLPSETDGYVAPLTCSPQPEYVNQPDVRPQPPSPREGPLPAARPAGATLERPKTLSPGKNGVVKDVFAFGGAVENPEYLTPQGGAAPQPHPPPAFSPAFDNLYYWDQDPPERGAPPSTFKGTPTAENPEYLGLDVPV

Compound	relative tumor proliferation rate T/C [1]	tumor inhibitory effects [1]	thermal stability [2]	Purity (%) ([2]; detect time day 0)	Purity (%) ([2]; detect time day 10)	Purity (%) ([2]; detect time day 30)	relative tumor proliferation rate T/C (human lung cancer A549)	stability under the environment of high moisture [3]	Purity (%) ([3]; detect time 0)	Purity (%) ([3]; detect time 10)	Purity (%) ([3]; detect time 30)	relative tumor proliferation rate T/C (human lung cancer Calu-3)	light stability [4]	Purity (%) ([4]; detect time 0)	Purity (%) ([4]; detect time 10)	Purity (%) ([4]; detect time 30)	food intake [5]	physical signs, appearance, behaviors, activities or shape of dejecta [5]	weight and weight increase of the rats [5]	also measured
C=CC(=O)Nc1ccc2ncnc(Nc3ccc(OCc4cccc(F)c4)c(Cl)c3)c2c1.Cc1ccc(S(=O)(=O)O)cc1 [Form C, N-{4-[3-chloro-4-(3-fluoro-benzyloxy)phenylamino]-quinazolin-6-yl}-acrylamide p-Toluenesulfonate]	23.2%	significant tumor inhibitory effects	good	99.03%	97.08%	97.55%	58.7%	comparatively stable	99.03%	98.27%	98.08%	39.4%	good	99.03%	98.54%	98.42%	normal	no abnormality	basically similar to the solvent control group	
C=CC(=O)Nc1ccc2ncnc(Nc3ccc(OCc4cccc(F)c4)c(Cl)c3)c2c1.Cc1ccc(S(=O)(=O)O)cc1 [Form A, N-{4-[3-chloro-4-(3-fluoro-benzyloxy)phenylamino]-quinazolin-6-yl}-acrylamide p-Toluenesulfonate]			excellent	98.64%	98.64%	98.64%		very stable	98.64%	98.62%	98.62%		good	98.64%	98.16%	97.24%	normal	no abnormality	basically similar to the solvent control group	tumor inhibitory effect ([1]; SKOV-3 nude mouse, ig once a day, in words): significant tumor inhibitory effect; Weight of animals (g) (without tumor) ([6]; 25 mg/kg ig, A431 nude mouse): 21.58 ± 2.18 g; Tumor inhibition rate % ([6]; 25 mg/kg ig): 29.99%; Weight of tumors (g) x ± SD ([6]; 25 mg/kg ig): 0.79 ± 0.20 g; Weight of animals (g) (without tumor) ([6]; 50 mg/kg ig, A431 nude mouse): 22.87 ± 3.96 g; Tumor inhibition rate % ([6]; 50 mg/kg ig): 38.67%; Weight of tumors (g) x ± SD ([6]; 50 mg/kg ig): 0.69 ± 0.17 g; Weight of animals (g) (without tumor) ([6]; 100 mg/kg ig, A431 nude mouse): 22.13 ± 1.83 g; Tumor inhibition rate % ([6]; 100 mg/kg ig): 43.63%; Weight of tumors (g) x ± SD ([6]; 100 mg/kg ig): 0.64 ± 0.23 g; inhibitory effect on the tumor ([6]; A431 nude mouse, ig, in words): significant inhibitory effect
C=CC(=O)Nc1ccc2ncnc(Nc3ccc(OCc4cccc(F)c4)c(Cl)c3)c2c1.Cc1ccc(S(=O)(=O)O)cc1 [Form B, N-{4-[3-chloro-4-(3-fluoro-benzyloxy)phenylamino]-quinazolin-6-yl}-acrylamide p-Toluenesulfonate]	28.5%	significant tumor inhibitory effects	excellent	99.26%	99.21%	99.11%	56.3%	very stable	99.26%	99.25%	99.24%	35.1%	excellent	99.26%	99.26%	99.24%	normal	no abnormality	basically similar to the solvent control group	AUC0-t [7]: 978 ng·h/mL
C=CC(=O)Nc1ccc2ncnc(Nc3ccc(OCc4cccc(F)c4)c(Cl)c3)c2c1 [Compound of formula (I), N-{4-[3-chloro-4-(3-fluoro-benzyloxy)phenylamino]-quinazolin-6-yl}-acrylamide]																				inhibitory activity against Erb-B2 kinase (Erb-B2 kinase): excellent inhibitory activity; inhibiting the growth of BT-474 cells [8]: relatively good effect; tumor-inhibiting effect on A431 implanted into a nude mouse [9]: significant tumor-inhibiting effect; inhibiting the growth of A431 cells [10]: relatively good effect
